Experimental findings from patent US20030175678A1, “Methods for identifying genes regulating desired cell phenotypes” (priority 2001, published 2003) are described below.

Holding throughout (format): cell-based
For assay [1], the system named is C. fascicularis suspension culture. As to the kind of experiment: Differential induction of EGCG in Crassula fascicularis suspension culture (HPLC). As to conditions: B49 medium, treated on day 7 following subculture. As to the method: Differential induction of catechins in the C. fascicularis suspension culture was performed in 500 mL conical flasks containing 190 mL of either growth medium B105 (modified Gamborg's B5 medium containing 2,4-D (1 mg/L), kinetin (0.1 mg/L), coconut water (100 mL/L), glutamine (10 mM), and 3% sucrose) or a secondary metabolite production medium B49 (Gamborg's B5, 5% sucrose, no hormones), inoculated with 70 mL of 14 day old suspension culture. Cultures were grown for 14 days before harvest and processing. Further cultures grown on production medium B49 were treated using one of each of the following protocols:
(4) A 40 mL aliquot of a day 0 suspension growing on B105 medium was transferred to a 100 mL flask. On day 3, a sterile solution of 5-azacytidine (5-AC) in water was added for a final concentration of 3×10^−5 M, and the resultant mixture was incubated for 11 days. At this point the 40 mL 5-AC-treated culture was subcultured twice before inoculating 190 mL B49 production medium in a 500 mL flask with 70 mL of day 14 suspension. The culture was then treated further according to protocol (2). […]
Lyophilized biomass from 100 mL plant cell culture was extracted three times with 10 mL of boiling aqueous 0.2 M NaH2PO4 solution (total 30 mL). The combined, cooled, extracts were extracted with EtOAc (2×30 mL). The combined EtOAc extracts were then dried under a stream of nitrogen. The samples were dissolved in 50% aqueous acetonitrile at a concentration of 1.0 mg/mL; a 0.1 mL aliquot was transferred into a 0.25 mL glass insert to a 2 mL HPLC vial. The extraction procedure is scalable according to the initial volume of the plant-cell culture used to generate the biomass.
HPLC analyses of compounds in plant cell culture extracts were performed in two systems. System 1 (S1) utilized a Rainin Dynamax SD-200 pumping system, a Varian Dynamax PDA-2 diode array detector, with a Waters XTerra RP 18 (5 μm, 3.0×150 mm) column. The mobile phase was composed from 0.1% acetic acid in H2O (solvent A) and 0.1% acetic acid in acetonitrile (solvent B), at a flow rate of 0.75 mL/min: after maintaining initial conditions (A:B, 95:5) for one minute post-injection, gradient elution was accomplished in a linear fashion over 30 min (to A:B, 40:60). A total of 10 μL of each sample was injected onto the column and eluates were analyzed at a wavelength of 275 nm. System 2 (S2) utilized API-electrospray-LC-MS: a Hewlett Packard series HP1100 with a Waters Xterra RP18 (3.5 μm, 2.1×100 mm) column was used as the inlet for a Micromass Platform-LC, in the positive-ion mode. […] Compounds of interest were detected at 254 nm and as single-charged species via selected-ion monitoring in the mass spectrometer. […]

For assay [2], the system named is C. barkleyi suspension culture. As to the kind of experiment: Differential induction of catechin accumulation in Crassula barkleyi suspension culture. As to conditions: B49 medium, treated seven days after inoculation, sampled for 17 days. The method, then:
Differential induction of catechin derivatives in the C. barkleyi suspension culture was performed in 250 mL conical flasks containing 100 mL of a secondary metabolite production medium B49 (Gamborg's B5, with 5% sucrose, and no hormones), inoculated with 16 mL of 14 day old suspension culture. The cultures were incubated under low light conditions (approximately 30 lux) at 25° C. for seven days after inoculation. Cultures were then treated using one of each of the following protocols (untreated cultures were also maintained as controls):
(2) Autoclaved aqueous 2,4-D (1 mg/L final concentration) was added;
(4) Filter-sterilized aqueous DL-phenylalanine (200 mg/L) was added;
(6) Filter-sterilized aqueous zeatin (10 μM) was added;
(7) Filter-sterilized aqueous 1-aminocyclopropane-1-carboxylic acid (10 mg/L final concentration) was added;
(8) Filter-sterilized 24-epibrassinolide (1 mg/L final concentration) was added;
(9) Incubation at a temperature of 16° C.; or (10) High light regime (approximately 160 lux).
Ten milliliter culture samples were taken at regular intervals for 17 days following the day of subculture to B49 medium. All culture samples were centrifuged for five minutes at 4000 rpm, and the cell residue was freeze-dried. Extraction, sample preparation, and HPLC analysis were performed as described in Example 1.

In assay [3] the test system is C. dejecta suspension culture. Briefly: Differential induction of catechin accumulation in Crassula dejecta suspension culture. As to conditions: cultures grown on B105, added at day 7. The method, then:
Differential induction of catechin derivatives in the C. dejecta suspension culture was performed in 250 mL conical flasks containing 100 mL of B105 growth medium or 100 mL of a secondary metabolite production medium B49 (Gamborg's B5, with 5% sucrose, and no hormones), inoculated with 40 mL of 21 day old suspension culture. The cultures were incubated under low light conditions (approximately 30 lux) at 25° C. Cultures were treated using one of each of the following protocols:
(1) B105 growth medium (no additions) used as is;
(3) Filter-sterilized aqueous zeatin (10 μM) was added at day 7 to a culture grown on B105 medium;
(4) B49 production medium (no additions) used as is;
(6) Filter-sterilized clofibrate (0.5 mM final concentration) was added at day 7 to a culture grown on B49 medium. Ten milliliters of culture samples were taken at regular intervals for 17 days following the day of subculture to B105 or B49 medium. All culture samples were centrifuged for five minutes at 4000 rpm, and the cell residue was freeze-dried. Extraction, sample preparation, and HPLC analysis were performed as described in Example 1.

On to `O=C(O)c1cc(O)c(O)c(O)c1` [gallic acid], for which the “EGCG (mg/gdwt) two days after treatment” value in assay [1] was determined as 82 mg/gdwt. As to `O=C(O)COc1ccc(Cl)cc1Cl` [2,4-D, 2,4-dichlorophenoxyacetic acid], the “catechin biosynthesis and EGCG accumulation” value in assay [2] was “suppressed catechin biosynthesis”. The same measure, in the same setting: as for `CC(C)[C@@H](C)[C@@H](O)[C@H](O)[C@@H](C)[C@H]1CC[C@H]2[C@@H]3COC(=O)[C@H]4C[C@H](O)[C@H](O)C[C@]4(C)[C@H]3CC[C@]12C` [24-epibrassinolide], the entry is “induced catechin biosynthesis and EGCG accumulation”. In the case of `C/C(=C\CNc1ncnc2[nH]cnc12)CO` [zeatin], the “catechin biosynthesis and EGCG accumulation” value in assay [2] is “induced catechin biosynthesis and EGCG accumulation”. Moreover, in assay [3], the “induction of catechin, gallocatechin, and EGCG” value is “induced catechin, gallocatechin, and EGCG”. `CCOC(=O)C(C)(C)Oc1ccc(Cl)cc1` [Clofibrate]: the “EGCG (mg/gdwt) two days after treatment” value in assay [1] was found to be 89 mg/gdwt. `O.O.O.O.O.O.O.O=S(=O)([O-])[O-].[Fe+2]` [FeSO4.7H2O]: the “EGCG (mg/gdwt) two days after treatment” value in assay [1] came to 90 mg/gdwt.
